In the METLIN SMRT retention time set (Domingo-Almenara et al. 2019):

Assay: gradient 5% acetonitrile 3 min, to 50% in 2 min, to 85% in 15 min, held 3 min, 100 µL/min
Settings: column: Zorbax Extend-C18 2.1 x 50 mm; eluents: water / acetonitrile, 0.1% formic acid
In short: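 Each retention time is based on an adduct peak selected computationally and verified by manual inspection. Measurements used HPLC–quadrupole time-of-flight mass spectrometry in positive and negative ionization mode on mixtures of ~100 pure standards. Chromatography ran on a Zorbax Extend-C18 column (2.1 × 50 mm, 1.8 μm) at 100 μL/min with water and acetonitrile, each containing 0.1% formic acid, and dead and dwell volumes of 40 μL and 900 μL.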

Row | SMILES | RP-LC retention time [s]
1 | CCC(C(=O)Nc1ccc2ncnc(N3CCCC3)c2c1)c1ccccc1 (stereo unspecified) | 703
2 | CS(=O)(=O)c1ccc(Cc2nnc(NC(=O)C3CCCC3)o2)cc1 | 632
3 | CC1CCC[C@H](O)CCCCCc2cc(O)cc(O)c2C(=O)O1 (stereo partly specified) | 862
4 | CC1=C(c2ccc(F)cc2)S(=O)(=O)N=C1N1CCCN(C(=O)NC2CCCC2)CC1 | 820
5 | COCC(=O)NC(Cc1ccccc1)c1nc2ccccc2n1Cc1ccccc1F (stereo unspecified) | 769
6 | CCOC(=O)C1CCN(c2ncc(C(=O)Nc3ccc(OC)cc3)c(N)n2)CC1 | 698
7 | CC(C)n1cnc2cc(CNC(=O)Cc3ccccc3F)ccc21 | 623
8 | COc1ccc(NC(=O)N2CCC3(CC2)NC(=O)c2cc(C)ccc2N3C)cc1 | 742
9 | Cc1cc(=O)n(CCc2ccccc2)c(N2CCCC2)n1 | 742
10 | O=C(Nc1nnc(C2CC(=O)N(c3ccc(Cl)cc3)C2)o1)c1ccccc1F (stereo unspecified) | 748
11 | Cc1ccc(CSc2ccc(-n3nc4c(c3C)CCC4)nn2)cc1 | 1370
12 | CC1CCCN(c2ccc(-c3noc(CN4CCc5ccccc5C4)n3)cn2)C1 (stereo unspecified) | 970
13 | O=C(c1cn(-c2cc(N3CCCCC3)ncn2)cn1)N1CCN(C(=O)c2ccco2)CC1 | 675
14 | O=C(Nc1ccc(-c2nc3ccccc3o2)cc1)c1ccc(S(=O)(=O)N2CCCC2)cc1 | 1000
15 | CCOC(=O)c1c(C)[nH]c(CCC(=O)NC(C)CC)c1C (stereo unspecified) | 762
16 | O=C(Cn1nc(C2CC2)cc1C(=O)N1CCCC1)Nc1ccccc1 | 740
17 | CN1CCN(CCNC(=O)C2CCCN(c3ncnc4c3nc3n4CCCCC3)C2)CC1 (stereo unspecified) | 570
18 | CC(C)(C)C1CCC(OCC(O)CN2CCN(CCO)CC2)CC1 (stereo unspecified) | 581
19 | COc1ccccc1NC(=O)N1CCCC1c1nc(-c2cccc(C)c2)no1 (stereo unspecified) | 1080
20 | Cc1cccc(N2CCN(C(=O)c3ccc(CN4CCN(C(C)C)C(=O)C4=O)cc3)CC2)c1 | 759

Row | SMILES | RP-LC retention time [s]
21 | O=C(NCCc1csc(-c2ccccc2)n1)C1CCN(S(=O)(=O)c2ccccc2)CC1 | 881
22 | COc1ccc(-c2cn3c(CC(=O)N4CCN(c5ccccc5OC)CC4)csc3n2)cc1OC | 698
23 | Cc1noc(-c2ccc(=O)n(Cc3ccccc3C)n2)n1 | 851
24 | Cc1ccc(-c2c(C(=O)NCc3ccco3)nc3ccccn23)cc1 | 1150
25 | O=C(NCc1ccc(F)cc1)N1CCCN(c2nc3cccnc3s2)CC1 | 687
26 | Cc1ccc(C)c(C(=O)N2CCN(c3cc(C)nc(N4CCOCC4)n3)CC2)c1 | 637
27 | CCN1CCCn2cc(S(=O)(=O)Nc3ccc(OC)cc3)cc2C1=O | 680
28 | CCc1nc2c(=O)n(CC(=O)N3CCCCCC3)nc(C)c2s1 | 706
29 | Cc1ccc(NC(=O)N2CCC(N3CCN(Cc4ccc(F)cc4)C(=O)C3=O)CC2)cc1C | 774
30 | CCN(CC)S(=O)(=O)c1ccc2c(c1)cc(C(=O)NCCc1c[nH]c3ccc(OC)cc13)n2C | 964
31 | CN1C(=O)C(CC(=O)N2CCCC2)Sc2ncccc21 (stereo unspecified) | 626
32 | Cc1ccc(S(=O)(=O)N2CCC(n3cnnc3-c3ccccc3)CC2)cc1C | 859
33 | O=C(Cn1nc(N2CCOCC2)c2ccccc2c1=O)Nc1ccc(F)c(F)c1 | 796
34 | C=CCNC(=O)C(=O)N1CCN(c2ccc(OC)cc2)CC1 | 625
35 | CC(=O)N1C[C@@H]2CCCN3CCC[C@@H]([C@H]23)[C@H]1CCCC(=O)NCCC(C)C | 583
36 | CCN1CCC(N(Cc2ccc3c(c2)OCO3)C(=O)Nc2ccc(OC)cc2)CC1 | 641
37 | COc1cc(NC(C)=O)c2ncccc2c1Br | 960
38 | CCc1ccccc1NC(=O)Nc1cccc(-c2ccc(N3CCOCC3)nn2)c1 | 717
39 | COc1ccc(NC(=O)c2nnc(CSCC(=O)NCCc3c[nH]c4ccc(C)cc34)s2)cc1 | 910
40 | CCOc1nn(CC)cc1-c1nnc(SCC(=O)N2CCCc3ccccc32)n1CC | 734

Row | SMILES | RP-LC retention time [s]
41 | Cc1ccc(CN2CCn3c(nn(C)c3=O)C2)nc1 | 530
42 | COc1ccc2c(c1)C1(CCN(C(=O)CCc3ccccc3)C1)C(=O)N2 (stereo unspecified) | 728
43 | CCc1ccccc1NC(=O)C1CCCN(S(=O)(=O)c2cn(CC)cn2)C1 (stereo unspecified) | 726
44 | COc1ccc([N+](=O)[O-])cc1NS(=O)(=O)c1ccc(C)cc1 | 961
45 | COc1ccc(OCc2nc(-c3ccc4c(c3)nc(C)c(=O)n4C3CCCC3)no2)cc1 | 1170
46 | Cc1cccc(NC(=O)N2CCC3(CC2)NC(=O)c2ccccc2O3)c1C | 775
47 | Cc1ccccc1Nc1c(-c2cccc(Cl)c2)nc2cccc(C)n12 | 802
48 | CN(C)c1nc2cc(C(=O)N3CCOCC3)sc2n1-c1ccccc1 | 614
49 | CCCn1c(=O)sc2cc(S(=O)(=O)N3CCC(C(=O)N(C)C4CCCCC4)CC3)ccc21 | 1020
50 | Cc1c(Cl)cccc1NC(=O)C1CCN(c2nc(C3CCC3)nc3csc(C)c23)CC1 | 1000
51 | C1CCCC(NC2=NCCO2)CCC1 | 680
52 | O=C(NCC1CCCO1)c1ccccc1OCc1nc(-c2ccccc2)no1 (stereo unspecified) | 898
53 | CCn1c(=O)c2ccn(CC(=O)Nc3ccc(Cl)cc3)c2n(CC)c1=O | 747
54 | O=C(CC1CCN(C(=O)NC2CCCCC2)CC1)N1CCN(c2ccccn2)CC1 | 598
55 | Cc1cc(C)n(CCN2CCN(C(=O)Cn3cnc4ccccc43)CC2)n1 | 512
56 | Cc1cc(Nc2cc(N3CCN(C)CC3)nc(/C=C/c3ccccc3)n2)n[nH]1 | 625
57 | CCc1nc2cc(N3CCC(C(=O)NCc4ccc(F)cc4)CC3)cnc2nc1CC | 851
58 | CC1CCN(S(=O)(=O)c2nn(Cc3ccccn3)cc2C(=O)O)CC1 | 721
59 | COc1ccc(CCNC(=O)C2CCc3nc(N4CCC(C)CC4)ncc3C2)cc1OC (stereo unspecified) | 757

Continued, values first:

Row | RP-LC retention time [s] | SMILES
60 | 804 | Cc1ccccc1Nc1c(-c2ccc(Cl)cc2)nc2cccc(C)n12
61 | 936 | CCOC(=O)C1CCN(C(=O)C2CCN(S(=O)(=O)c3cc(Cl)ccc3OCC)CC2)CC1
62 | 887 | Cc1cccc2c(=O)n(C)c(CCC(=O)NCc3ccc(Br)cc3)nc12
63 | 732 | CCOC1CCN(C(=O)Nc2ccccc2C)CC1
64 | 941 | Cc1ccc2c(c1)N(S(C)(=O)=O)CCC(C(=O)NC1CC3CCC1C3)O2 (stereo unspecified)
65 | 1010 | CCOc1cccc(-c2noc(Cn3cnc4c(oc5ccccc54)c3=O)n2)c1
66 | 647 | Cc1cccc(NC(=O)N2CC(F)(F)C[C@H]2CN2CCCC2)c1C
67 | 797 | CCCC1=C(C(=O)OCC)C(c2ccccc2OC)NC(=O)N1 (stereo unspecified)
68 | 838 | Cc1cc(C)cc(NC(=O)N2CCC(n3cnc4ccc(C)cc4c3=O)CC2)c1
69 | 634 | CCN1CCC2(CC1)OC(=O)C(C)=C2C(=O)N1CCN(c2cccc(OC)c2)CC1
70 | 738 | Cc1ccc(-c2nc3nc(C)c(CC(=O)N4CCCC4)c(C)n3n2)cc1
71 | 839 | CCOCCCNC(=O)C(Cc1c[nH]c2ccccc12)NC(=O)C1CCC(C)CC1 (stereo unspecified)
72 | 808 | Cc1cc2c(cc1S(=O)(=O)NC(C)C)N(C(=O)C1CC1)CC2
73 | 594 | CC(C)NC(=O)c1cc(N2CCCC2)nc2ccccc12
74 | 744 | OC(CNCC(O)C1CCc2cc(F)ccc2O1)C1CCc2cc(F)ccc2O1 (stereo unspecified)
75 | 809 | COc1cc(NC(=O)Cn2cc(-c3nnc(C)o3)c3ccccc32)cc(OC)c1

Row | RP-LC retention time [s] | SMILES
76 | 1040 | COc1ccc(N2CC(c3nc(-c4ccc(Br)cc4)no3)CC2=O)c(OC)c1 (stereo unspecified)
77 | 675 | CN(C)c1ccc(NC(=O)c2cn(-c3ccc(F)cc3)nn2)cc1
78 | 718 | CC(C(O)c1ccc(O)cc1)N1CCC(Cc2ccccc2)CC1 (stereo unspecified)
79 | 854 | CC(=O)c1cccc(NC(=O)CN2C(=O)CC(c3ccccc3)=Nc3cccnc32)c1
80 | 665 | Cn1c(=O)c2ccnn2c2ccc(C(=O)NCc3ccccc3)cc21
81 | 924 | Cc1ccc(C)c(NC(=O)N2CCc3nc(-c4ccccc4)ncc3C2)c1
82 | 890 | CC(C)CCNC(=O)C1CCN(c2nc3ccsc3c(=O)n2Cc2ccccc2)CC1
83 | 648 | Cc1cccc(NC(=O)C2CCN(S(=O)(=O)c3cc(C(=O)N4CCOCC4)cs3)CC2)n1
84 | 892 | O=C(CCn1c(N2CCCC2)nc2ccsc2c1=O)Nc1cccc(Cl)c1
85 | 632 | CCOC(=O)N1CCC(NS(=O)(=O)C2CC2)CC1
86 | 680 | O=C(NC1CCCCC1)NC1CCN(C(=O)C2CCC2)C1 (stereo unspecified)
87 | 662 | NC[C@@H]1O[C@H](c2ccccc2)Cc2c1ccc(O)c2O
88 | 770 | CCc1ccc(NC(=O)N2CC(c3nc(C)no3)C3(CCOCC3)C2)cc1 (stereo unspecified)
89 | 619 | O=C(NCc1cccnc1)c1ccc2c(c1)N(CC(=O)N1CCCC1)C(=O)CO2
90 | 706 | COc1cc(C(=O)NC2CCN(c3cc(-c4ccc(F)cc4)[nH]n3)C2)cc(OC)c1OC (stereo unspecified)
91 | 614 | Cc1ccc(N2C(=O)CC(N3CCC(C(N)=O)CC3)C2=O)c(Cl)c1 (stereo unspecified)
